From US7384629B2, “Biological control of nematodes with Hirsutella minnesotensis” (Regents of the University of Minnesota, priority 2000, dated 2008) come the findings set out here.

Assay [1] relates to Hirsutella rhossiliensis. The assay is described as follows: Effect of nitrogen source on growth, sporulation and spore germination. The conditions noted are these: for Growth mm-in-diam, on agar: nitrogen source 0.3296 g/L nitrogen; for Growth mm-in-diam, on agar / growth in liquit culture (visual rating) / Sporulation 10^3/cm^2, on agar: 5 weeks; for Spore germination %, on agar / growth in liquit culture (visual rating) / Sporulation 10^3/cm^2, on agar: nitrogen source.

For assay [2], the system named is Hirsutella rhossiliensis. Kind of assay: Effect of carbon source on growth, sporulation and spore germination. The settings on record: for Growth mm-in-diam, on agar: carbon source 4 g/liter carbon; for Growth mm-in-diam, on agar / Sporulation 10^3/cm^2, on agar / growth in liquid culture (visual rating): 5 weeks; for Sporulation 10^3/cm^2, on agar / growth in liquid culture (visual rating) / Spore germination %, on agar: carbon source; for Spore germination %, on agar: after incubation for 24 hr.

`N[C@@H](CSSC[C@H](N)C(=O)O)C(=O)O` [L-cystine]: in the assay with Hirsutella rhossiliensis [1] (isolate ATCC46487), the “Growth mm-in-diam, on agar” value was 0.0 mm-in-diam and the “Spore germination %, on agar” value stood at 14.4%. Further, in the assay on Hirsutella rhossiliensis [1] (isolate JA16-1), the “Growth mm-in-diam, on agar” value worked out at 0.0 mm-in-diam; the “Spore germination %, on agar” value is listed as 4.4%; the “growth in liquit culture (visual rating)” value was found to be 0. In addition, in the assay on Hirsutella rhossiliensis [1] (isolate OWVT-1), the “Growth mm-in-diam, on agar” value is given as 0.0^ mm-in-diam and the “Spore germination %, on agar” value turned out to be 5.6%.

For the compound `NC(=O)C[C@H](N)C(=O)O` [L-Asparagine], in the assay on Hirsutella rhossiliensis [1] (isolate ATCC46487), the “Growth mm-in-diam, on agar” value turned out to be 51.8 mm-in-diam and the “Spore germination %, on agar” value stood at 93.3%. Further, in the assay on Hirsutella rhossiliensis [1] (isolate JA16-1), the “Growth mm-in-diam, on agar” value was determined as 16.5 mm-in-diam; the “Spore germination %, on agar” value is 85.5%; the “growth in liquit culture (visual rating)” value is recorded as “IV (IV = the pellet diameter larger than 1 cm, but the total volume distribution less than 5 ml)”. Further, in the assay on Hirsutella rhossiliensis [1] (isolate OWVT-1), the “Growth mm-in-diam, on agar” value worked out at 20.8 mm-in-diam; the “Spore germination %, on agar” value stood at 70.0%; the “growth in liquit culture (visual rating)” value is listed as “III (III = hyphae growth or colonies form a pellet, less than 2.5 ml)”.

Consider `C[C@@H](O)[C@H](N)C(=O)O` (racemic) [DL-Threonine], for which the “Growth mm-in-diam, on agar” value is 25.4 mm-in-diam in the assay with Hirsutella rhossiliensis [1] (isolate ATCC46487), 8.3 mm-in-diam in the assay with Hirsutella rhossiliensis [1] (isolate JA16-1) and 9.0 mm-in-diam in the assay on Hirsutella rhossiliensis [1] (isolate OWVT-1). For the same compound, the “Spore germination %, on agar” value with Hirsutella rhossiliensis [1] (isolate ATCC46487) turned out to be 93.3%; in the assay on Hirsutella rhossiliensis [1] (isolate JA16-1), 83.3%; in the assay with Hirsutella rhossiliensis [1] (isolate OWVT-1), 48.9%. Moreover, the “growth in liquit culture (visual rating)” value is reported as “IV (IV = the pellet diameter larger than 1 cm, but the total volume distribution less than 5 ml)” in the assay with Hirsutella rhossiliensis [1] (isolate JA16-1) and “III (III = hyphae growth or colonies form a pellet, less than 2.5 ml)” with Hirsutella rhossiliensis [1] (isolate OWVT-1).

Take `N[C@@H](Cc1ccccc1)C(=O)O` [L-Phenylalanine]: in the assay on Hirsutella rhossiliensis [1] (isolate ATCC46487), the “Growth mm-in-diam, on agar” value is given as 34.3 mm-in-diam; the “Spore germination %, on agar” value is given as 77.8%; the “Sporulation 10^3/cm^2, on agar” value is 7.9 10^3/cm^2. In the assay with Hirsutella rhossiliensis [1] (isolate JA16-1), the “Growth mm-in-diam, on agar” value is reported as 11.7 mm-in-diam; the “Spore germination %, on agar” value was 86.7%; the “Sporulation 10^3/cm^2, on agar” value is given as 79.0 10^3/cm^2. In the assay with Hirsutella rhossiliensis [1] (isolate OWVT-1), the “Growth mm-in-diam, on agar” value stood at 17.5 mm-in-diam; the “Spore germination %, on agar” value amounted to 68.3%; the “Sporulation 10^3/cm^2, on agar” value is recorded as 15.9 10^3/cm^2; the “growth in liquit culture (visual rating)” value was “IV (IV = the pellet diameter larger than 1 cm, but the total volume distribution less than 5 ml)”.

Casein: in the assay with Hirsutella rhossiliensis [1] (isolate OWVT-1), the “Growth mm-in-diam, on agar” value was found to be 23.0 mm-in-diam; the “Spore germination %, on agar” value was found to be 44.4%; the “Sporulation 10^3/cm^2, on agar” value is listed as 43.6 10^3/cm^2. Also, in the assay with Hirsutella rhossiliensis [1] (isolate ATCC46487), the “Spore germination %, on agar” value was 96.7%. Also, the “Spore germination %, on agar” value with Hirsutella rhossiliensis [1] (isolate JA16-1) is given as 90.0%.

Turning to `O=[N+]([O-])[O-].[Na+]` [NaNO3], in the assay with Hirsutella rhossiliensis [1] (isolate ATCC46487), the “Growth mm-in-diam, on agar” value is on record as 39.2 mm-in-diam; the “Spore germination %, on agar” value came to 86.7%; the “Sporulation 10^3/cm^2, on agar” value was 10.0 10^3/cm^2; the “growth in liquit culture (visual rating)” value is on record as “IV (IV = the pellet diameter larger than 1 cm, but the total volume distribution less than 5 ml)”. In the assay with Hirsutella rhossiliensis [1] (isolate JA16-1), the “Growth mm-in-diam, on agar” value was 15.3 mm-in-diam; the “Spore germination %, on agar” value stood at 73.3%; the “Sporulation 10^3/cm^2, on agar” value is given as 6.4 10^3/cm^2; the “growth in liquit culture (visual rating)” value is given as “I”. In addition, in the assay with Hirsutella rhossiliensis [1] (isolate OWVT-1), the “Growth mm-in-diam, on agar” value came to 21.7 mm-in-diam; the “Spore germination %, on agar” value was 55.6%; the “Sporulation 10^3/cm^2, on agar” value is 35.9 10^3/cm^2.

As for `NCC(=O)O` [Glycine], in the assay on Hirsutella rhossiliensis [1] (isolate ATCC46487), the “Growth mm-in-diam, on agar” value stood at 41.5 mm-in-diam and the “Spore germination %, on agar” value was found to be 75.6%. In addition, in the assay with Hirsutella rhossiliensis [1] (isolate JA16-1), the “Growth mm-in-diam, on agar” value came to 7.5 mm-in-diam; the “Spore germination %, on agar” value worked out at 93.3%; the “growth in liquit culture (visual rating)” value is “III (III = hyphae growth or colonies form a pellet, less than 2.5 ml)”. In the assay on Hirsutella rhossiliensis [1] (isolate OWVT-1), the “Growth mm-in-diam, on agar” value came out at 10.7 mm-in-diam; the “Spore germination %, on agar” value is recorded as 60.0%; the “growth in liquit culture (visual rating)” value is “III (III = hyphae growth or colonies form a pellet, less than 2.5 ml)”.

As to `OC[C@H]1O[C@@](CO)(O[C@H]2O[C@H](CO)[C@@H](O)[C@H](O)[C@H]2O)[C@@H](O)[C@@H]1O` [Sucrose], in the assay with Hirsutella rhossiliensis [2] (isolate ATCC46487), the “Growth mm-in-diam, on agar” value is 39.5 mm-in-diam; the “Sporulation 10^3/cm^2, on agar” value is listed as 38.9 10^3/cm^2; the “growth in liquid culture (visual rating)” value is “III (III = hyphae growth or colonies form a pellet, less than 2.5 ml)”; the “Spore germination %, on agar” value was 55.6%. In the assay with Hirsutella rhossiliensis [2] (isolate JA16-1), the “Growth mm-in-diam, on agar” value is 15.0 mm-in-diam; the “Sporulation 10^3/cm^2, on agar” value is reported as 6.9 10^3/cm^2; the “growth in liquid culture (visual rating)” value is given as “I”; the “Spore germination %, on agar” value was 73.4%. In the assay on Hirsutella rhossiliensis [2] (isolate OWVT-1), the “Growth mm-in-diam, on agar” value is 21.8 mm-in-diam; the “Sporulation 10^3/cm^2, on agar” value is recorded as 47.7 10^3/cm^2; the “Spore germination %, on agar” value amounted to 52.2%.

As to `O=C[C@H](O)[C@@H](O)[C@@H](O)[C@H](O)CO` [D(+)galactose], in the assay with Hirsutella rhossiliensis [2] (isolate ATCC46487), the “Growth mm-in-diam, on agar” value is 25.0 mm-in-diam; the “Sporulation 10^3/cm^2, on agar” value was 2.8 10^3/cm^2; the “growth in liquid culture (visual rating)” value is “I”; the “Spore germination %, on agar” value is on record as 62.2%. Moreover, in the assay with Hirsutella rhossiliensis [2] (isolate JA16-1), the “Growth mm-in-diam, on agar” value is 0.0 mm-in-diam; the “Sporulation 10^3/cm^2, on agar” value was 7.4 10^3/cm^2; the “Spore germination %, on agar” value came out at 43.3%. Besides, in the assay with Hirsutella rhossiliensis [2] (isolate OWVT-1), the “Growth mm-in-diam, on agar” value worked out at 7.0 mm-in-diam; the “Sporulation 10^3/cm^2, on agar” value is 7.7 10^3/cm^2; the “Spore germination %, on agar” value is given as 43.3%.

In the case of Glycogen, in the assay on Hirsutella rhossiliensis [2] (isolate ATCC46487), the “Growth mm-in-diam, on agar” value is given as 46.8 mm-in-diam; the “Sporulation 10^3/cm^2, on agar” value was 77.5 10^3/cm^2; the “Spore germination %, on agar” value was determined as 72.2%. Moreover, in the assay on Hirsutella rhossiliensis [2] (isolate JA16-1), the “Growth mm-in-diam, on agar” value came out at 20.5 mm-in-diam; the “Sporulation 10^3/cm^2, on agar” value is on record as 12.4 10^3/cm^2; the “growth in liquid culture (visual rating)” value was “IV (IV = the pellet diameter larger than 1 cm, but the total volume distribution less than 5 ml)”; the “Spore germination %, on agar” value worked out at 77.8%. In addition, in the assay with Hirsutella rhossiliensis [2] (isolate OWVT-1), the “Growth mm-in-diam, on agar” value was 34.8 mm-in-diam; the “Sporulation 10^3/cm^2, on agar” value is reported as 7.9 10^3/cm^2; the “growth in liquid culture (visual rating)” value is recorded as “IV (IV = the pellet diameter larger than 1 cm, but the total volume distribution less than 5 ml)”; the “Spore germination %, on agar” value is recorded as 72.2%.

`OC[C@@H](O)[C@@H](O)[C@H](O)[C@H](O)CO` [D-mannitol]: in the assay on Hirsutella rhossiliensis [2] (isolate ATCC46487), the “Growth mm-in-diam, on agar” value stood at 29.5 mm-in-diam; the “Sporulation 10^3/cm^2, on agar” value is recorded as 15.9 10^3/cm^2; the “growth in liquid culture (visual rating)” value is “III (III = hyphae growth or colonies form a pellet, less than 2.5 ml)”; the “Spore germination %, on agar” value is reported as 58.9%. Besides, in the assay on Hirsutella rhossiliensis [2] (isolate JA16-1), the “Growth mm-in-diam, on agar” value is 18.0 mm-in-diam; the “Sporulation 10^3/cm^2, on agar” value is recorded as 17.3 10^3/cm^2; the “growth in liquid culture (visual rating)” value was “I”; the “Spore germination %, on agar” value came out at 61.1%. In addition, in the assay on Hirsutella rhossiliensis [2] (isolate OWVT-1), the “Growth mm-in-diam, on agar” value worked out at 23.2 mm-in-diam; the “Sporulation 10^3/cm^2, on agar” value is listed as 40.6 10^3/cm^2; the “Spore germination %, on agar” value is 60.0%.
